Measurements reported in patent US11972843B2, “Systems and methods for predicting adverse events and assessing level of sedation during medical procedures” (Massachusetts Institute of Technology, priority 2015, dated 2024).

System: patients receiving propofol during procedural sedation
Settings: 23 patients; per patient, average of the pharmacokinetic-model effect-site concentrations at end of procedure with all boluses and with the last bolus removed
Description: The start and end of the procedure were marked by the clinical staff who collected the data. The average of the “all drugs” value and the “last drug removed” value at the time of the end of the procedure constitutes, in this illustrative embodiment, an estimate of the titration threshold that the clinician aims to remain above between the start and end of the procedure.
The titration threshold for each patient was established as described in connection with FIG. 17, namely: the start and end of the procedure were marked by the clinical staff who collected the data; the end-procedure effect-site concentration, shown on the y-axis, of each patient was estimated with all drug administrations, and again without the final bolus administration; and the average of these two values was taken as the estimated titration threshold for that patient. […] The titration threshold is estimated at the time the procedure ends since the proceduralist deems it necessary to administer a final bolus in order to render the patient's sedation level sufficient to endure the procedure.

CC(C)c1cccc(C(C)C)c1O [propofol]
mean of the estimated titration thresholds (end-procedure effect-site concentration): 1.72 micrograms/milliliter
